In patent US20050214385A1, “Chromium/biotin treatment of dyslipidemia and diet-induced post prandial hyperglycemia” (priority 2001, published 2005):
Values joined by “and” are separate entries in the source; they are usually repeats but may differ in a detail not shown here. Equal values may be shown once. Read-outs that look alike come from different tables or passages of the source.

Columns and labels:
[1] = rats, oral CrCl3 with NSAID; cited from earlier work
[2] = oral biotin intakes of up to 200 mg daily; cited from earlier work
[3] = tested on: glycogen synthetase (GS) mRNA; experiment: Glycogen synthetase (GS) mRNA expression in HSMC; format: cell-based, human; details: CrPic 10 ng/ml, biotin 10 pm, FIG. 4B
Procedure: To evaluate the cellular mechanism by […] biotin enhance glycogen synthesis, glycogen synthetase (“GS”) mRNA and glycogen synthesis were assessed. HSMC was incubated with CrPic at 10 ng/ml, biotin at 10 pm, and both CrPic and biotin. […] When evaluating GS mRNA levels, chromium increased gene expression of GS by 26%, biotin by 15%, and the combination by 33%. […] RNA Preparation: Total RNA from the skeletal muscle biopsy was isolated using guanium […], phenol-chloroform extraction, and alcohol precipitation. RNA sample was quantified by spectrophotometer. The absorption ratio (260:280 nm) was between 1.8 to 2.0 for all preparations and the integrity of the RNA was verified on agarose gel colored with ethidium bromide. For RT-PCR, fresh isolated total RNA was used. GS mRNA Level Analysis: GS mRNA levels were analyzed using one-step RT-PCR kits (Clontech Laboratories, Inc., Palo Alto, Calif.). GS first-strand CDNA synthesis was performed from 1 μh of total RNA with 1×[…] plus enzyme mix in 40 mM Tricine, 20 mM Kcl, 3 mM MgCl2, 3.75 ug/ml BSA, 0.2 mM deoxynucleoside triphosphates, 400 pmol of oligo(dt) primer, and 200 pm GS primers (Sense [NT], antisense [NT]) in a final volume of 50 μl. The reaction mixtures were subjected to incubations for 60 min. at 50° C. in the Eppendorf Master gradient cycler (Westbury, N.Y.). […] The band densities were evaluated (Alpha Imager 2000, San Leandro, Calif.). […]

[4] = tested on: JCR rat; experiment: Lipid levels in JCR rats (chromium picolinate + biotin animal study); format: in vivo; set-up: Cholesterol / HDL-ch: unit not given here
Procedure: In order to test the effects of chromium and biotin, alone and in combination, on insulin sensitivity, a rodent model of “Syndrome X” was employed. Specifically, the JCR rat was utilized as it is a well-established model of obesity and insulin resistance. […] After a baseline phase where accurate weights, body composition, and food intake were assessed, the animals were randomized to either control, CrPic alone, biotin alone, or CrPic/Biotin (See FIG. 5). Animals were weighed weekly and nutrients were given via daily water feeding at a specified dose/kg body weight. A 12-week period of daily treatment of animals was accomplished. […] Specifically, CrPic versus control solutions were given in hyperinsulinemic, insulin-resistant, obese JCR rats. The study was initiated on animals at approximately 4 months of age, and animals were treated specifically for three months. […] 9). […] The improvement in insulin sensitivity was associated with a reduction in total. cholesterol levels compared to lean animals (See, e.g., Table 2, and FIGS. 10 & 11). The effect of the combination of chromium and biotin on lipid levels in the animal study is detailed in Table 2. Specifically, the effect of chromium and biotin on cholesterol levels, high density lipid cholesterol (HDL-ch) levels, and triglyceride levels are recorded in Table 2.

[5] = tested on: streptozotocin-diabetic rats; Otsuka Long-Evans Tokushima Fatty rats; details: high-dose oral or parenteral, cited from earlier work
[6] = tested on: JCR rat; experiment: Intraperitoneal glucose tolerance test / glucose disposal in JCR rats; format: in vivo; details: for Glucose Disposal: individual rat, 12 weeks daily treatment via water; for Glucose Disposal, value per treatment group: mean per treatment, 12 weeks
Procedure: In order to test the effects of chromium and biotin, alone and in combination, on insulin sensitivity, a rodent model of “Syndrome X” was employed. Specifically, the JCR rat was utilized as it is a well-established model of obesity and insulin resistance.
After a baseline phase where accurate weights, body composition, and food intake were assessed, the animals were randomized to either control, CrPic alone, biotin alone, or CrPic/Biotin (See FIG. 5). Animals were weighed weekly and nutrients were given via daily water feeding at a specified dose/kg body weight. A 12-week period of daily treatment of animals was accomplished.
At specified time points during the study, glucose and insulin assessments were made. Specific assessments of carbohydrate metabolism were determined using an intraperitoneal glucose tolerance test and an insulin tolerance test. Animals were studied at 6 and 12 weeks with randomization. The specific metabolic testing was as follows:
Following baseline glucose and insulin measurements, 1.5 mg D50W per gram of body weight were given intraperitoneally. Tailsticks were initiated at 30, 60, 90, and 120 minutes following administration of glucose. The areas under curve for insulin and glucose were assessed. Eight animals in each group at 12 weeks were studied. Table 1 details the amount of glucose disposal for animals treated with CrPic and/or biotin at various dosages. Note, “L” represents the lean control; “O-contr” are the obese control rats; “LB” connotes low biotin treatments; “HB” represents high biotin treatments; “LC” and “HC” represent low and high doses of chromium, respectively. FIG. 6 is a graphic representation of the results of the IPGTT studies. […]

[7] = tested on: diabetic KK mice; details: high-dose oral or parenteral; cited from earlier work
[8] = tested on: human skeletal muscle culture (HSMC); experiment: Glucose uptake in human skeletal muscle culture; format: cell-based; details: FIG. 2
[9] = tested on: Type I and type 2 diabetics; details: cited from earlier work
[10] = tested on: diabetic and obese pre-diabetic subjects; details: cited from earlier work
[11] = tested on: JCR rat; experiment: Insulin tolerance test in obese JCR rats; format: in vivo; details: FIG. 9
Procedure: (§1) At specified time points during the study, glucose and insulin assessments were made. Specific assessments of carbohydrate metabolism were determined using an intraperitoneal glucose tolerance test and an insulin tolerance test. Animals were studied at 6 and 12 weeks with randomization. The specific metabolic testing was as follows: Following baseline glucose assessment, insulin (5 units per kg body weight) was given intravenously. Repeat glucose assessments occurred at 5, 15, and 30 minute intervals following insulin administration. The rate of glucose disappearance was measured. Again, eight animals in each group at 12 weeks were studied. […] Specifically, CrPic versus control solutions were given in hyperinsulinemic, insulin-resistant, obese JCR rats. The study was initiated on animals at approximately 4 months of age, and animals were treated specifically for three months. […] 9). […] The improvement in insulin sensitivity was associated with a reduction in total. cholesterol levels compared to lean animals (See, e.g., Table 2, and FIGS. 10 & 11). The effect of the combination of chromium and biotin on lipid levels in the animal study is detailed in Table 2. Specifically, the effect of chromium and biotin on cholesterol levels, high density lipid cholesterol (HDL-ch) levels, and triglyceride levels are recorded in Table 2.

[12] = tested on: JCR rat; experiment: Fasting plasma insulin in obese JCR rats; format: in vivo; details: treated three months, end of study, FIG. 7
Procedure: as §1, with “randomization.” for “randomization. The specific metabolic testing was as follows: Following baseline glucose assessment, insulin (5 units per kg body weight) was given intravenously. Repeat glucose assessments occurred at 5, 15, and 30 minute intervals following insulin administration. The rate of glucose disappearance was measured. Again, eight animals in each group at 12 weeks were studied.”

[13] = tested on: JCR:LA-corpulent rat; details: obese, hyperinsulinemic, insulin resistant rodent model; cited from earlier work
[14] = Month 0, listed as High Chromium
[15] = Month 0, listed as Low Chromium
[16] = Month 1, listed as High Chromium
[17] = Month 1, listed as Low Chromium
[18] = Month 2, listed as High Chromium
[19] = Month 2, listed as Low Chromium
[20] = Month 3, listed as High Chromium
[21] = Month 3, listed as Low Chromium

## CC(=O)Oc1ccccc1C(=O)O [aspirin]
[1]
  Chromium absorption: facilitated

## O=C(O)CCCC[C@@H]1SC[C@@H]2NC(=O)N[C@@H]21 [biotin]
[2]
  side effects or toxicities: no side effects or toxicities
[3]
  increase of gene expression of GS (GS mRNA levels): 15%
[4]; Month 0, listed as High Biotin
  Cholesterol: 106
  HDL-ch: 43.6
  Triglyceride: 289 mg/dL
[4]; Month 0, listed as Low Biotin
  Cholesterol: 111
  HDL-ch: 47.8
  Triglyceride: 317 mg/dL
[4]; Month 1, listed as High Biotin
  Cholesterol: 111
  HDL-ch: 42
  Triglyceride: 292 mg/dL
[4]; Month 1, listed as Low Biotin
  Cholesterol: 117
  HDL-ch: 46.5
  Triglyceride: 331 mg/dL
[4]; Month 2, listed as High Biotin
  Cholesterol: 130
  HDL-ch: 46.8
  Triglyceride: 294 mg/dL
[4]; Month 2, listed as Low Biotin
  Cholesterol: 122
  HDL-ch: 45.8
  Triglyceride: 272 mg/dL
[4]; Month 3, listed as High Biotin
  Cholesterol: 144
  HDL-ch: 46.9
  Triglyceride: 301 mg/dL
[4]; Month 3, listed as Low Biotin
  Cholesterol: 118
  HDL-ch: 47.3
  Triglyceride: 229 mg/dL
[5]; pre-diabetic Otsuka Long-Evans Tokushima Fatty rats
  oral glucose tolerance: improve oral glucose tolerance
[5]; rats made diabetic with streptozotocin
  oral glucose tolerance: improve oral glucose tolerance
[6]; listed as HB
  Glucose Disposal: 1.92 mg/dL/min and 2.329 mg/dL/min and 1.879 mg/dL/min and 1.772 mg/dL/min and 1.993 mg/dL/min
[6]; listed as LB
  Glucose Disposal: 2.21 mg/dL/min and 2.392 mg/dL/min and 1.876 mg/dL/min and 1.768 mg/dL/min and 1.875 mg/dL/min
[6]
  Glucose Disposal, value per treatment group: 2.0615 mg/dL/min
[7]
  oral glucose tolerance: improve oral glucose tolerance
[8]
  glucose uptake: chromium alone enhances glucose uptake in contrast to biotin alone
[9]; Type I diabetics, insulin temporarily discontinued, 16 mg daily oral
  fasting plasma glucose levels: lowered fasting plasma glucose levels
[9]; poorly-controlled type 2 diabetics, 3 mg three times per day
  pancreatic beta cell function: improved

## chromium picolinate [CrPic]
[3]
  increase of gene expression of GS (GS mRNA levels): 26%
[4]; [14]
  Cholesterol: 110
  HDL-ch: 43.1
  Triglyceride: 302 mg/dL
[4]; [15]
  Cholesterol: 109
  HDL-ch: 45.9
  Triglyceride: 319 mg/dL
[4]; [16]
  Cholesterol: 112
  HDL-ch: 43.2
  Triglyceride: 283 mg/dL
[4]; [17]
  Cholesterol: 93
  HDL-ch: 38.6
  Triglyceride: 267 mg/dL
[4]; [18]
  Cholesterol: 120
  HDL-ch: 51.5
  Triglyceride: 221 mg/dL
[4]; [19]
  Cholesterol: 130
  HDL-ch: 43.4
  Triglyceride: 256 mg/dL
[4]; [20]
  Cholesterol: 122
  HDL-ch: 48.1
  Triglyceride: 174 mg/dL
[4]; [21]
  Cholesterol: 137
  HDL-ch: 45.9
  Triglyceride: 242 mg/dL
[4]; obese JCR rats, FIGS. 10 & 11
  total cholesterol levels: reduction
[10]; Chinese diabetics
  glucose levels: significantly lowered
  insulin levels: significantly lowered
[10]; obese, pre-diabetic subjects, 1000 μg per day
  insulin sensitivity: enhance insulin sensitivity
[11]
  Insulin sensitivity, insulin tolerance test: significantly improved
[6]; listed as HC
  Glucose Disposal: 2.928 mg/dL/min and 3.25 mg/dL/min and 3.224 mg/dL/min and 3.011 mg/dL/min and 2.821 mg/dL/min
[6]; listed as LC
  Glucose Disposal: 2.334 mg/dL/min and 2.109 mg/dL/min and 2.066 mg/dL/min
[6]
  Glucose Disposal, value per treatment group: 2.928 mg/dL/min
[6]; obese JCR rats, FIG. 8A
  glucose response to intraperitoneal glucose tolerance test: significantly improved glucose response
[6]; obese rat, FIG. 8B
  insulin response to intraperitoneal glucose tolerance test: significantly lowered insulin response
[12]
  fasting plasma insulin: significantly lower fasting plasma insulin
[13]
  insulin sensitivity: very robust effect on improving
  lipid profiles: very robust effect on improving
[8]
  glucose uptake: enhances glucose uptake
